Values joined by “and” are separate entries in the source; they are usually repeats but may differ in a detail not shown here. Equal values may be shown once. Inconclusive results and toxic doses are left out.
Tested on: L1210 leukemia ip in BDF1 mice, survival T/C
Assay: NCI In Vivo Anticancer Drug Screen. Data for tumor model L1210 Leukemia (intraperitoneal) in B6D2F1 (BDF1) mice
Details: endpoint: mean survival time, higher = longer survival
Procedure, shortened: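 Transplanted-tumor mice were given test agent; controls received vehicle only. Survival readings from the two groups were divided (treated over control).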

[1] = dose: 100.0 mg/kg/injection, schedule: Q01DX001 (ip), vehicle: saline
[2] = dose: 200.0 mg/kg/injection, schedule: Q01DX001 (ip), vehicle: saline
[3] = dose: 400.0 mg/kg/injection, schedule: Q01DX001 (ip), vehicle: saline
[4] = dose: 100.0 mg/kg/injection, schedule: Q01DX009 (ip), vehicle: Klucel (hydroxypropylcellulose) (HPC)
[5] = dose: 200.0 mg/kg/injection, schedule: Q01DX009 (ip), vehicle: Klucel (hydroxypropylcellulose) (HPC)
[6] = dose: 400.0 mg/kg/injection, schedule: Q01DX009 (ip), vehicle: Klucel (hydroxypropylcellulose) (HPC)
[7] = dose: 100.0 mg/kg/injection, schedule: Q04DX003 (ip), vehicle: Klucel (hydroxypropylcellulose) (HPC)
[8] = dose: 100.0 mg/kg/injection, schedule: Q04DX003 (ip), vehicle: saline
[9] = dose: 200.0 mg/kg/injection, schedule: Q04DX003 (ip), vehicle: Klucel (hydroxypropylcellulose) (HPC)
[10] = dose: 200.0 mg/kg/injection, schedule: Q04DX003 (ip), vehicle: saline
[11] = dose: 400.0 mg/kg/injection, schedule: Q04DX003 (ip), vehicle: Klucel (hydroxypropylcellulose) (HPC)
[12] = dose: 75.0 mg/kg/injection, schedule: Q01DX001 (ip), vehicle: carboxymethylcellulose (CMC)
[13] = dose: 100.0 mg/kg/injection, schedule: Q04DX002 (ip), vehicle: saline
[14] = dose: 200.0 mg/kg/injection, schedule: Q04DX002 (ip), vehicle: saline
[15] = dose: 400.0 mg/kg/injection, schedule: Q04DX002 (ip), vehicle: saline
[16] = dose: 100.0 mg/kg/injection, schedule: Q01DX009 (ip), vehicle: saline with Tween-80
[17] = dose: 200.0 mg/kg/injection, schedule: Q01DX009 (ip), vehicle: saline with Tween-80
[18] = dose: 400.0 mg/kg/injection, schedule: Q01DX009 (ip), vehicle: saline with Tween-80
[19] = dose: 100.0 mg/kg/injection, schedule: Q04DX003 (ip), vehicle: saline with Tween-80
[20] = dose: 200.0 mg/kg/injection, schedule: Q04DX003 (ip), vehicle: saline with Tween-80
[21] = dose: 400.0 mg/kg/injection, schedule: Q04DX003 (ip), vehicle: saline with Tween-80
[22] = dose: 100.0 mg/kg/injection, schedule: Q01DX001 (ip), vehicle: saline with Tween-80
[23] = dose: 200.0 mg/kg/injection, schedule: Q01DX001 (ip), vehicle: saline with Tween-80
[24] = dose: 400.0 mg/kg/injection, schedule: Q01DX001 (ip), vehicle: saline with Tween-80

O=NC1C(Cl)C2CC1C1c3ccccc3C21 (stereo unspecified)
T/C [1]: 95 % of control | T/C (dose: 100.0 mg/kg/injection, schedule: Q01DX009 (ip), vehicle: saline): 89 % of control | T/C [2]: 104 % of control | T/C (dose: 200.0 mg/kg/injection, schedule: Q01DX009 (ip), vehicle: saline): 93 % of control | T/C [3]: 93 % of control | T/C (dose: 400.0 mg/kg/injection, schedule: Q01DX009 (ip), vehicle: saline): 89 % of control

CCC1CCC2C(CCC3(N(C)C)CCC(OC)C(OC)C23)C1 (stereo unspecified)
T/C (dose: 3.13 mg/kg/injection, schedule: Q01DX001 (ip), vehicle: saline with Tween-80): 98 % of control | T/C (dose: 6.25 mg/kg/injection, schedule: Q01DX001 (ip), vehicle: saline with Tween-80): 96 % of control | T/C (dose: 12.5 mg/kg/injection, schedule: Q01DX001 (ip), vehicle: saline with Tween-80): 100 % of control

CCOC(=O)N1Cc2cc3ccccc3nc2C1C1OC(CC)(C(=O)OCC)C1=O (stereo unspecified)
T/C (dose: 10.0 mg/kg/injection, schedule: Q07DX002 (ip), vehicle: alcohol): 96 % of control | T/C (dose: 20.0 mg/kg/injection, schedule: Q07DX002 (ip), vehicle: alcohol): 105 % of control | T/C (dose: 40.0 mg/kg/injection, schedule: Q07DX002 (ip), vehicle: alcohol): 89 % of control | T/C (dose: 80.0 mg/kg/injection, schedule: Q07DX002 (ip), vehicle: alcohol): 105 % of control

CCCCCCCC/C=C\CCCCCCCC(=O)OCCCCCCCCCCCCCC
T/C [4]: 104 % of control | T/C [5]: 98 % of control | T/C [6]: 94 % of control

CC(=O)OCC1OC(OC(C)=O)C(NC(=O)N(C)C)C(OC(C)=O)C1OC(C)=O (stereo unspecified)
T/C (dose: 50.0 mg/kg/injection, schedule: Q04DX003 (ip), vehicle: saline): 103 % of control | T/C [7]: 101 % of control | T/C [8]: 106 % of control | T/C [9]: 103 % of control | T/C [10]: 101 % of control | T/C [11]: 103 % of control

CCOC(=O)C1=CN=NC1=[N+]=[N-]
T/C (dose: 10.0 mg/kg/injection, schedule: Q01DX001 (ip), vehicle: saline): 96 % of control | T/C (dose: 20.0 mg/kg/injection, schedule: Q01DX001 (ip), vehicle: saline): 102 % of control

CN(N)C(=O)Nc1ccccc1
T/C [12]: 100 % of control | T/C (dose: 150.0 mg/kg/injection, schedule: Q01DX001 (ip), vehicle: carboxymethylcellulose (CMC)): 100 % of control

Cn1c2ccc(Cl)cc2c2nnc(NCCCO)nc21
T/C [13]: 97 % of control | T/C [14]: 89 % of control | T/C [15]: 93 % of control

C=CN1C(=O)NC(C)(CC(C)C)C1=O (stereo unspecified)
T/C [16]: 104 % of control | T/C [17]: 91 % of control | T/C [18]: 92 % of control

Cc1ccc(OCC(O)CN2CCN(c3ccc(Cl)cc3)CC2)cc1 (stereo unspecified)
T/C (dose: 63.0 mg/kg/injection, schedule: Q01DX015 (ip), vehicle: carboxymethylcellulose (CMC)): 95 % of control | T/C [19]: 91 % of control | T/C (dose: 125.0 mg/kg/injection, schedule: Q01DX015 (ip), vehicle: carboxymethylcellulose (CMC)): 95 % of control | T/C [20]: 94 % of control | T/C (dose: 250.0 mg/kg/injection, schedule: Q01DX015 (ip), vehicle: carboxymethylcellulose (CMC)): 95 % of control | T/C [21]: 89 % of control | T/C (dose: 500.0 mg/kg/injection, schedule: Q01DX015 (ip), vehicle: carboxymethylcellulose (CMC)): 91 % of control | T/C (dose: 1000.0 mg/kg/injection, schedule: Q01DX015 (ip), vehicle: carboxymethylcellulose (CMC)): 95 % of control

CN(C)C(=S)Oc1ccc(O)cc1
T/C [22]: 102 % of control | T/C [23]: 97 % of control | T/C [24]: 100 % of control

Cc1cc(-c2ccccc2)c(-c2ccccn2)c2ccccc12
T/C [7]: 96 % of control | T/C [9]: 91 % of control | T/C [11]: 86 % of control

N#Cc1nc(-c2ccccc2)c(-c2ccccc2)nc1C#N
T/C [4]: 97 % of control | T/C [5]: 98 % of control | T/C [6]: 96 % of control

COC(=O)Cc1cc(=O)c2cc(C)ccc2[nH]1
T/C (dose: 50.0 mg/kg/injection, schedule: Q01DX009 (ip), vehicle: acetone): 94 % of control | T/C (dose: 100.0 mg/kg/injection, schedule: Q01DX009 (ip), vehicle: acetone): 101 % of control | T/C [8]: 94 % of control | T/C (dose: 200.0 mg/kg/injection, schedule: Q01DX009 (ip), vehicle: acetone): 97 % of control | T/C [10]: 94 % of control | T/C (dose: 400.0 mg/kg/injection, schedule: Q04DX003 (ip), vehicle: saline): 94 % of control

CCCCCCCCCCCCCCCCC(C(=O)OC)S(=O)(=O)O (stereo unspecified)
T/C [13]: 102 % of control | T/C [14]: 124 % of control | T/C [15]: 102 % of control

Cc1cc(NC(=O)N(CCCl)N=O)c(C)cc1NC(=O)c1ccccc1
T/C (dose: 4.2 mg/kg/injection, schedule: Q01DX009 (ip), vehicle: carboxymethylcellulose (CMC)): 124 % of control | T/C (dose: 9.6 mg/kg/injection, schedule: Q01DX001 (ip), vehicle: carboxymethylcellulose (CMC)): 111 % of control | T/C (dose: 14.0 mg/kg/injection, schedule: Q01DX009 (ip), vehicle: other): 186 % of control | T/C (dose: 22.0 mg/kg/injection, schedule: Q01DX009 (ip), vehicle: other): 196 % of control | T/C (dose: 33.0 mg/kg/injection, schedule: Q01DX009 (ip), vehicle: other): 213 % of control | T/C (dose: 50.0 mg/kg/injection, schedule: Q01DX009 (ip), vehicle: carboxymethylcellulose (CMC)): 180 % of control | T/C (dose: 58.0 mg/kg/injection, schedule: Q01DX009 (ip), vehicle: carboxymethylcellulose (CMC)): 175 % of control | T/C [12]: 159 % of control | T/C (dose: 75.0 mg/kg/injection, schedule: Q01DX009 (ip), vehicle: carboxymethylcellulose (CMC)): 193 % of control | T/C (dose: 88.0 mg/kg/injection, schedule: Q01DX009 (ip), vehicle: carboxymethylcellulose (CMC)): 190 % of control | T/C (dose: 120.0 mg/kg/injection, schedule: Q01DX001 (ip), vehicle: carboxymethylcellulose (CMC)): 150 % of control | T/C (dose: 132.0 mg/kg/injection, schedule: Q01DX009 (ip), vehicle: carboxymethylcellulose (CMC)): 228 % of control | T/C (dose: 177.0 mg/kg/injection, schedule: Q01DX001 (ip), vehicle: carboxymethylcellulose (CMC)): 153 % of control | T/C (dose: 200.0 mg/kg/injection, schedule: Q01DX009 (ip), vehicle: carboxymethylcellulose (CMC)): 163 % of control | T/C (dose: 266.0 mg/kg/injection, schedule: Q01DX001 (ip), vehicle: carboxymethylcellulose (CMC)): 162 % of control | T/C (dose: 266.0 mg/kg/injection, schedule: Q01DX001 (ip), vehicle: other): 91 % of control | T/C (dose: 400.0 mg/kg/injection, schedule: Q01DX001 (ip), vehicle: carboxymethylcellulose (CMC)): 245 % of control | T/C (dose: 600.0 mg/kg/injection, schedule: Q01DX001 (ip), vehicle: carboxymethylcellulose (CMC)): 219 % of control

CSc1ccc(NC(=O)OCCOc2ccccc2)cc1
T/C [22]: 94 % of control | T/C [16]: 96 % of control and 89 % of control | T/C (dose: 100.0 mg/kg/injection, schedule: Q04DX002 (ip), vehicle: saline with Tween-80): 99 % of control | T/C [19]: 100 % of control | T/C [23]: 94 % of control | T/C [17]: 97 % of control and 89 % of control | T/C (dose: 200.0 mg/kg/injection, schedule: Q04DX002 (ip), vehicle: saline with Tween-80): 108 % of control | T/C [20]: 102 % of control | T/C [24]: 110 % of control | T/C [18]: 94 % of control and 107 % of control | T/C (dose: 400.0 mg/kg/injection, schedule: Q04DX002 (ip), vehicle: saline with Tween-80): 89 % of control | T/C [21]: 102 % of control

CCCCC(CCCC)=NNc1ccc([N+](=O)[O-])cc1[N+](=O)[O-]
T/C [1]: 96 % of control | T/C [2]: 102 % of control | T/C [3]: 107 % of control
